Results reported in paper PMC3242765, “Inhibitors of Alphavirus Entry and Replication Identified with a Stable Chikungunya Replicon Cell Line and Virus-Based Assays” (PLoS ONE, 2011).
Counter-ions that a name gives are not always drawn.

Columns and labels:
CHIKV replicon = test: microbe, parasite or virus in culture; type: cell-based, Chikungunya virus (CHIKV)

Row | Compound | CHIKV replicon % left (CHIKV replicon) [%] | SFV replication % left (surviving fraction, remaining percentage of SFV replication) (SFV-Rluc) [%]
1 | CCN(CC)CCNC(=O)c1ccc(N)cc1 [Procainamide hydrochloride] | 100.4 | 89.0
2 | C#CCN(C)[C@H](C)Cc1ccccc1 [Selegiline hydrochloride] | 43.1 | 57.0
3 | CCCCNc1ccc(C(=O)OCCN(C)C)cc1 [Tetracaine hydrochloride] | 71.1 | 102.8
4 | CCCCNc1ccc(C(=O)OCCN(C)C)cc1 [p-Butylaminobenzoyldimethylaminoethanol] | 77.1 | 45.4
5 | Cc1cc(=O)oc2cc(O)ccc12 [4-Methylumbelliferone] | 105.6 | 90.9
6 | O=C1NC(=O)C(c2ccccc2)(c2ccccc2)N1 [Diphenylhydantoin [phenytoin]] | 78.1 | 66.3
7 | Cc1c(N)c(=O)n(-c2ccccc2)n1C [4-Aminoantipyrine [ampyrone]] | 89.2 | 51.6
8 | O=c1oc2c3c4c(cc2c2c1CCC2)CCCN4CCC3 [Coumarin 106] | 91.5 | 82.1
9 | COC(=O)c1ccc(O)cc1 [Methyl p-hydroxybenzoate] | 100.4 | 69.3
10 | NC(=O)N/N=C/c1ccc([N+](=O)[O-])o1 [Nitrofurazone] | 102.1 | 83.7
11 | N[C@@H]1C[C@H]1c1ccccc1.N[C@H]1C[C@@H]1c1ccccc1.O=S(=O)(O)O [Tranylcypromine sulfate] | 94.4 | 94.8
12 | C#C[C@]1(O)CC[C@H]2[C@@H]3CCc4cc(O)ccc4[C@H]3CC[C@@]21C [17 -a-ethynylestradiol] | 59.8 | 11.7
13 | Oc1cc(O)c2c(c1)OC(c1ccc(O)c(O)c1)C(O)C2O (stereo not shown) [Leucocyanidin] | 84.1 | 136.3
14 | CCC1(CC)C(=O)NC(=O)NC1=O [Barbital] | 106.1 | 64.7
15 | O=S(=O)(O)NC1CCCCC1 [Cyclamic acid] | 107.5 | 74.9
16 | O=C(O)c1cc(O)cc(O)c1 [3,5-Dihydroxybenzoic acid] | 87.8 | 6.9
17 | O=C(O)/C=C/c1ccccc1O [o-Coumaric acid] | 98.6 | 77.6
18 | COC(=O)C1=CCCN(C)C1 [Arecoline hydrobromide] | 101.1 | 83.6
19 | Cc1ncc(C[n+]2csc(CCO)c2C)c(N)n1.O=[N+]([O-])[O-] [Thiamine mononitrate] | 85.0 | 95.2

Row | Compound | CHIKV replicon % left (CHIKV replicon) [%] | SFV replication % left (surviving fraction, remaining percentage of SFV replication) (SFV-Rluc) [%]
20 | C[C@@H]1O[C@@H](Oc2c(-c3ccc(O)c(O)c3)oc3cc(O)cc(O)c3c2=O)[C@H](O)[C@H](O)[C@H]1O.O.O [Quercitrin dihydrate] | 45.2 | 11.4
21 | CCn1cc(C(=O)O)c(=O)c2ccc(C)nc21 [Nalidixic acid] | 100.4 | 80.4
22 | Cc1cccc(C)c1NC(=O)C1CCCCN1C (stereo not shown) [Mepivacaine hydrochloride] | 62.2 | 74.9
23 | Oc1c(I)cc(Cl)c2cccnc12 [Clioquinol] | 32.7 | 71.9
24 | C[C@](N)(Cc1ccc(O)c(O)c1)C(=O)O [L-Methyldopa] | 70.2 | 99.1
25 | O.O.O=c1c(O)c(-c2ccc(O)cc2O)oc2cc(O)cc(O)c12 [Morin dihydrate] | 102.6 | 82.9
26 | COc1cc(O)c2c(=O)c(OC)c(-c3ccc(OC)c(OC)c3)oc2c1 [Quercetin-3,7,3',4'-tetramethylether] | 58.2 | 65.0
27 | CCCCC1C(=O)N(c2ccccc2)N(c2ccc(O)cc2)C1=O (stereo not shown) [Oxyphenbutazone] | 100.4 | 84.8
28 | NC[C@@H]1O[C@H](O[C@H]2[C@@H](O)[C@H](O[C@@H]3[C@@H](O)[C@H](N)C[C@H](N)[C@H]3O[C@H]3O[C@H](CN)[C@@H](O)[C@H](O)[C@H]3N)O[C@@H]2CO)[C@H](N)[C@@H](O)[C@@H]1O.O=S(=O)(O)O [Neomycin sulfate] | 100.4 | 99.6
29 | O=c1cc(-c2ccc(O)c(O)c2)oc2cc(O[C@@H]3O[C@H](CO)[C@@H](O)[C@H](O)[C@H]3O)cc(O)c12 [Luteolin-7-glucoside] | 54.4 | 17.8
30 | CC(C)[N+](C)(CCOC(=O)C1c2ccccc2Oc2ccccc21)C(C)C [Propantheline bromide] | 104.2 | 77.0
31 | CC(C)(CO)[C@@H](O)C(=O)NCCC(=O)[O-].CC(C)(CO)[C@@H](O)C(=O)NCCC(=O)[O-].O.[Ca+2] | 106.1 | 93.1
32 | O=C(O)c1ccc(O)cc1O [2,4-Dihydroxylbenzoic acid] | 29.5 | 32.1
33 | O.O.O.O=c1ccc2cc(O[C@@H]3O[C@H](CO)[C@@H](O)[C@H](O)[C@H]3O)c(O)cc2o1.O=c1ccc2cc(O[C@@H]3O[C@H](CO)[C@@H](O)[C@H](O)[C@H]3O)c(O)cc2o1 [Esculin sesquihydrate] | 102.6 | 95.0
34 | C[N+]1(C)[C@@H]2CC[C@H]1C[C@@H](OC(=O)C(CO)c1ccccc1)C2 (stereo partly shown) [Atropine methyl nitrate] | 61.7 | 46.8
35 | CCN1C(=O)CC(=O)N(CC)C1=S | 89.2 | 75.7
36 | NCCN1C(=O)CN=C(c2ccccc2F)c2cc(Cl)ccc21 [Desalkylflurazepam] | 74.3 | 68.5
37 | CN1C(=O)CN=C(c2ccccc2)c2cc(Cl)ccc21 [Diazepam] | 84.0 | 73.6
38 | Oc1ccccc1O [Catechol] | 77.7 | 58.4
